Results published in patent publication US8450314B2, “Pyrimidopyridazine derivatives useful as P38 MAPK inhibitors” (Chiesi Farmaceutici S.p.A., priority 2009, dated 2013).

Target: T1, p38α (Homo sapiens, UniProt Q16539)
T1 construct: purchased Calbiochem 559324; host or cells: E. coli
Assay: p38 Kinase Assay (ATF-2 phosphorylation ELISA)
Format: biochemical
Conditions: human recombinant p38 activated with MKK6; 2 h preincubation; ATP 250 μM; 1% DMSO; read-out: p38α inhibition
Description: Human recombinant p38 enzyme expressed in E. coli and activated by incubation with MKK6 enzyme (Calbiochem #559324) is used as source of enzyme activity.
The assay is carried in high binding, clear, flat bottom 96 well assay plates which have been coated with recombinant ATF-2 (Biosource #PHF0043). Test compounds are incubated with p38 kinase for 2 h prior to initiating the kinase assay by the addition of ATP to obtain an assay concentration of 250 μM. Phosphorylation of ATF-2 is detected and quantified using an ELISA. This consists of sequential incubation in the presence of anti-phospho-ATF2, biotinylated anti-IgG and streptavidin-HRP. Incubation with an HRP chromogenic substrate (TMB) results in absorbance that is proportional to the amount of phosphorylated substrate produced. Absorbance is detected using a multiwell plate reader.
Compounds are diluted in DMSO prior to addition to assay buffer, the final DMSO concentration in the assay being 1%.
The IC50 is defined as the concentration at which a given compound achieves 50% inhibition of control.

T1 sequence (Q16539 whole entry): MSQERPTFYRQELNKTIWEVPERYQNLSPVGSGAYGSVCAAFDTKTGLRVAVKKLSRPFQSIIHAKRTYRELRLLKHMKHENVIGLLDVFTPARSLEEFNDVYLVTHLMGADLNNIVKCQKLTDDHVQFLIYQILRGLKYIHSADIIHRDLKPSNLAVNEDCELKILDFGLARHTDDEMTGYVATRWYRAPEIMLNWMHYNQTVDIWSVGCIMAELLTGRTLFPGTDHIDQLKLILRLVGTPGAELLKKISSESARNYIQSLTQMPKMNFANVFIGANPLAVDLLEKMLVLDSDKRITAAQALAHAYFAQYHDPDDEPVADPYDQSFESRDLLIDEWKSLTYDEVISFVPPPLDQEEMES

| SMILES | IC50 [nM] |
| --- | --- |
| NC(=O)C(c1ccc(Sc2ccccc2CNC(=O)c2cc(F)cc(N3CCOCC3)c2)nn1)c1c(Cl)cccc1Cl (centres unmarked) [Example 1, N-[2-({6-[2-Amino-1-(2,6-dichlorophenyl)-2-oxoethyl]pyridazin-3-yl}sulfanyl)benzyl]-3-fluoro-5-(morpholin-4-yl)benzamide] | < 10 |
| O=C(NCc1ccccc1Sc1ccc2c(-c3c(Cl)cccc3Cl)c(=O)ncn2n1)c1cc(F)cc(N2CCOCC2)c1 [Example 2, N-(2-{[5-(2,6-Dichlorophenyl)-6-oxo-6H-pyrimido[1,6-b]pyridazin-2-yl]sulfanyl}benzyl)-3-fluoro-5-(morpholin-4-yl)benzamide] | < 100 |
